Results: PMC6704710, “Preclinical evaluation of 3D185, a novel potent inhibitor of FGFR1/2/3 and CSF-1R, in FGFR-dependent and macrophage-dominant cancer models” (Journal of Experimental & Clinical Cancer Research : CR, 2019)

Assays:
Test in all cases: Eurofins kinase panel
Type in all cases: biochemical
Conditions in all cases: read-out: Inhibition rate (%)
AMPKα1(h) = biological target: T1, AMPKα1(h) (Homo sapiens, UniProt Q13131)
T1 construct: purchased Eurofins (KinaseProfiler)

BTK(h) = biological target: T2, BTK(h) (Homo sapiens, UniProt Q06187)
T2 construct: purchased Eurofins (KinaseProfiler)

CDK6/cyclinD3(h) = biological target: T3, CDK6/cyclinD3(h) (Homo sapiens, UniProt Q00534)
T3 construct: purchased Eurofins (KinaseProfiler)

CDKL3(h) = biological target: T4, CDKL3(h) (Homo sapiens, UniProt Q8IVW4)
T4 construct: purchased Eurofins (KinaseProfiler)

CHK1(h) = biological target: T5, CHK1(h) (Homo sapiens, UniProt O14757)
T5 construct: purchased Eurofins (KinaseProfiler)
T5 sequence (O14757 1-476): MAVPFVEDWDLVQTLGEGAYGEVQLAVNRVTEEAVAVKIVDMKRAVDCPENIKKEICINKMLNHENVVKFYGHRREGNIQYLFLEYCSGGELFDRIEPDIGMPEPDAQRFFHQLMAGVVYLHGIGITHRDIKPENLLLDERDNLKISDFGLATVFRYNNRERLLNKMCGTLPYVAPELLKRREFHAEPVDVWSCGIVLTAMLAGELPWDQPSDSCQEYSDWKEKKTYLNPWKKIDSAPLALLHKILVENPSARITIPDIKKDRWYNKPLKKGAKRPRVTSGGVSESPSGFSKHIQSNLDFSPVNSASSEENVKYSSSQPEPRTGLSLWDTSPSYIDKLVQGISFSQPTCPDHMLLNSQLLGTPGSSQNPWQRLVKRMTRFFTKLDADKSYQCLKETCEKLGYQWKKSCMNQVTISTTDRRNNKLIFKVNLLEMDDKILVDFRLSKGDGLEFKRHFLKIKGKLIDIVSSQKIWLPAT

HIPK3(h) = biological target: T6, HIPK3(h) (Homo sapiens, UniProt Q9H422)
T6 construct: purchased Eurofins (KinaseProfiler)

NEK6(h) = biological target: T7, NEK6(h) (Homo sapiens, UniProt Q9HC98)
T7 construct: purchased Eurofins (KinaseProfiler)

[1] = biological target: T8, PI3 Kinase (p110α/p65α)(h) (Homo sapiens, UniProt P42336)
T8 construct: purchased Eurofins (KinaseProfiler)

PKCδ(h) = biological target: T9, PKCδ(h) (Homo sapiens, UniProt Q05655)
T9 construct: purchased Eurofins (KinaseProfiler)

Rse(h) = biological target: T10, Rse(h) (Homo sapiens, UniProt Q06418)
T10 construct: purchased Eurofins (KinaseProfiler)
T10 sequence (Q06418 41-890): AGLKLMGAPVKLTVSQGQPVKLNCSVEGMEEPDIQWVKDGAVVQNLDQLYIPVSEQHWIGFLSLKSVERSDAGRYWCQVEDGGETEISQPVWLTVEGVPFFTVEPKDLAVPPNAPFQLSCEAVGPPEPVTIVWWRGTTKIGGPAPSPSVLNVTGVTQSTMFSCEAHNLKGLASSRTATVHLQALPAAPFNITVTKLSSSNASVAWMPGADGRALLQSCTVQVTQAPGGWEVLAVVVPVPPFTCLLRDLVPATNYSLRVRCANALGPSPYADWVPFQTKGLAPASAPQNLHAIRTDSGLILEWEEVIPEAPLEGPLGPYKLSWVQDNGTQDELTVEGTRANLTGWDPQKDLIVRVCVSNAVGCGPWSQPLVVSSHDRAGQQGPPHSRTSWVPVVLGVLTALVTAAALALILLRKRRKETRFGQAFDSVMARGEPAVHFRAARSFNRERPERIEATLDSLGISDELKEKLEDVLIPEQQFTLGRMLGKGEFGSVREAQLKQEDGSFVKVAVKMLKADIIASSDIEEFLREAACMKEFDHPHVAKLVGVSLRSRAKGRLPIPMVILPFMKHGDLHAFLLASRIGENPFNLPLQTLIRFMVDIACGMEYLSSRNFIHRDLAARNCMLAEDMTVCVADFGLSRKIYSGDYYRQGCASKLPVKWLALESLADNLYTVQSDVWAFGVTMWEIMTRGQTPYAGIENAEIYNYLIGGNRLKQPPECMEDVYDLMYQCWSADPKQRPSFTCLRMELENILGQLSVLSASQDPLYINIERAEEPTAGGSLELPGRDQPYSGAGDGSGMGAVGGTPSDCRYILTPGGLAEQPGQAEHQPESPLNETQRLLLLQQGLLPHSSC

SGK(h) = biological target: T11, SGK(h) (Homo sapiens, UniProt O00141)
T11 construct: purchased Eurofins (KinaseProfiler)
T11 sequence (O00141 1-431): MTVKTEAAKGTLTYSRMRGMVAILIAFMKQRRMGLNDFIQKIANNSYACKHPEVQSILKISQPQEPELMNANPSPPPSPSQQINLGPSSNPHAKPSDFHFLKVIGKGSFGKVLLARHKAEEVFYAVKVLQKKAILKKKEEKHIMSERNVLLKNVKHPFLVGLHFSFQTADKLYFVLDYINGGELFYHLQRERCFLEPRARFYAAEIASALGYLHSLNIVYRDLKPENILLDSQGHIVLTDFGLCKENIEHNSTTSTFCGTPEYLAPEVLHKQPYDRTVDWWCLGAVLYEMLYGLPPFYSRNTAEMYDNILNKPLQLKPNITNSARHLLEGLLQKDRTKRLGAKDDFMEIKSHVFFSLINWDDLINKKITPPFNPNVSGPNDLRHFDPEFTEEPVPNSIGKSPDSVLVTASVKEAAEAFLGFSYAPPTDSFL

mTOR(h) = biological target: T12, mTOR(h) (Homo sapiens, UniProt P42345)
T12 construct: purchased Eurofins (KinaseProfiler)

T4 sequence (Q8IVW4 whole entry): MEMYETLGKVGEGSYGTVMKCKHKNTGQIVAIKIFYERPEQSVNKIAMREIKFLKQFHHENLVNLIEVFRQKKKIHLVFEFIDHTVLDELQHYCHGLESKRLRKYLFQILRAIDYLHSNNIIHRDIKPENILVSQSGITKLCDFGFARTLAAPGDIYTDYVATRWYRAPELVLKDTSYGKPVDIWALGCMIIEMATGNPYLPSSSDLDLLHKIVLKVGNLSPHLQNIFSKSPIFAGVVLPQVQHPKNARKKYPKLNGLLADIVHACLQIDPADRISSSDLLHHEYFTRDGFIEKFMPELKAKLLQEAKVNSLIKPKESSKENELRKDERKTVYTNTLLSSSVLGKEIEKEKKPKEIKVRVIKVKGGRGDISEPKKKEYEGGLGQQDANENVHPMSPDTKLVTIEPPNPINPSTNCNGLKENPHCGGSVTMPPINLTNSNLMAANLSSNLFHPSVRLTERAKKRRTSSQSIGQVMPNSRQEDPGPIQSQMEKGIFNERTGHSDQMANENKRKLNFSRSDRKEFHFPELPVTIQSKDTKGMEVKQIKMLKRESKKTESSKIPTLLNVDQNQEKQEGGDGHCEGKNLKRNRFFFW
T8 sequence (P42336 whole entry): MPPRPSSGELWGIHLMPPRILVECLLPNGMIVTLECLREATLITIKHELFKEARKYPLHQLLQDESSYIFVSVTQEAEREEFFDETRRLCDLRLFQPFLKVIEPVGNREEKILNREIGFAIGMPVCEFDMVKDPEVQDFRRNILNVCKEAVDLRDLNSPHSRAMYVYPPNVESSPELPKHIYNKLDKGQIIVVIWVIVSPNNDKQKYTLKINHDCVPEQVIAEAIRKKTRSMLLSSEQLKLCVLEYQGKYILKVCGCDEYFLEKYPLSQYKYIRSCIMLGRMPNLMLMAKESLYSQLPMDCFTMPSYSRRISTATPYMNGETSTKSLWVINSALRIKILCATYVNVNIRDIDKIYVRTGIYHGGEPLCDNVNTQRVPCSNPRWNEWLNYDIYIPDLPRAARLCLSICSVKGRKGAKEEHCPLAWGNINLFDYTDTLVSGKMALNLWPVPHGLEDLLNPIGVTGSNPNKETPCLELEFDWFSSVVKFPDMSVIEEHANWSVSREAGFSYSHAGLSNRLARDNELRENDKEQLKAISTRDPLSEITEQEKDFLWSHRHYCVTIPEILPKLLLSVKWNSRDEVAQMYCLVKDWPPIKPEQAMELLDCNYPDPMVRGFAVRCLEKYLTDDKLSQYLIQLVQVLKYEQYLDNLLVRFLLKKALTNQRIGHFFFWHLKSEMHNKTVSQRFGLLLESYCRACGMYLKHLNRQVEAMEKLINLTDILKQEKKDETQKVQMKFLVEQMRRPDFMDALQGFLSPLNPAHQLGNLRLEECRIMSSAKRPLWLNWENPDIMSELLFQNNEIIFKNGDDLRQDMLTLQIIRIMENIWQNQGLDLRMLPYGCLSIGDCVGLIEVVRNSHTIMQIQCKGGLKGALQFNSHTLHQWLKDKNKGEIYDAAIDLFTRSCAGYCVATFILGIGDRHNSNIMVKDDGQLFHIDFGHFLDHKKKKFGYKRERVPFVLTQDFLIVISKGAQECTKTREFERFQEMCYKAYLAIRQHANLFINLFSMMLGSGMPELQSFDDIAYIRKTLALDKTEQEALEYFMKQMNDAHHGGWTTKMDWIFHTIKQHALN
T8 sequence (P27986 1-571 partner limits assumed): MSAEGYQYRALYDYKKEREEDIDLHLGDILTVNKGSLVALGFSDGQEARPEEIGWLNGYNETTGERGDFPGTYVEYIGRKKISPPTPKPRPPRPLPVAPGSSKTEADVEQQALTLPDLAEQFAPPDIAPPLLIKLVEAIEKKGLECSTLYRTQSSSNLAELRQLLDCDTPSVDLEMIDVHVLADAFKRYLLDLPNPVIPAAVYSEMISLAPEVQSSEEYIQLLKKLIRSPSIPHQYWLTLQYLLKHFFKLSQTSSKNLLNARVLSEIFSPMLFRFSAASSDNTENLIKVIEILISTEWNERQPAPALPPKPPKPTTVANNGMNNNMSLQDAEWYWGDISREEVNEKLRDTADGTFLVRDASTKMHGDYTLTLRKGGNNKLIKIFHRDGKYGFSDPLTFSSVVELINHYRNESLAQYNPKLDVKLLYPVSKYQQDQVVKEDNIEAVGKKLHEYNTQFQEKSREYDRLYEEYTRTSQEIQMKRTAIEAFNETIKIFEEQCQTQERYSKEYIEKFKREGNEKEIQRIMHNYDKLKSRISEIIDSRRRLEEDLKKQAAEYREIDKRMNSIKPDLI
T7 sequence (Q9HC98 whole entry): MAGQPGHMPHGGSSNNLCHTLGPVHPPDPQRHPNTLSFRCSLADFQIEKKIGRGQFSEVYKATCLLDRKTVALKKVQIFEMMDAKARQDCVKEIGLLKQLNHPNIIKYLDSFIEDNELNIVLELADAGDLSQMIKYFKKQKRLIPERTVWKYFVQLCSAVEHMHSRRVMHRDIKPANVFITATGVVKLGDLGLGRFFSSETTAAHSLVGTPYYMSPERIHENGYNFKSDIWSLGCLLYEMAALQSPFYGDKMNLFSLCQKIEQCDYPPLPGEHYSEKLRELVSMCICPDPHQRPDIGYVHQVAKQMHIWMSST
T1 sequence (Q13131 whole entry): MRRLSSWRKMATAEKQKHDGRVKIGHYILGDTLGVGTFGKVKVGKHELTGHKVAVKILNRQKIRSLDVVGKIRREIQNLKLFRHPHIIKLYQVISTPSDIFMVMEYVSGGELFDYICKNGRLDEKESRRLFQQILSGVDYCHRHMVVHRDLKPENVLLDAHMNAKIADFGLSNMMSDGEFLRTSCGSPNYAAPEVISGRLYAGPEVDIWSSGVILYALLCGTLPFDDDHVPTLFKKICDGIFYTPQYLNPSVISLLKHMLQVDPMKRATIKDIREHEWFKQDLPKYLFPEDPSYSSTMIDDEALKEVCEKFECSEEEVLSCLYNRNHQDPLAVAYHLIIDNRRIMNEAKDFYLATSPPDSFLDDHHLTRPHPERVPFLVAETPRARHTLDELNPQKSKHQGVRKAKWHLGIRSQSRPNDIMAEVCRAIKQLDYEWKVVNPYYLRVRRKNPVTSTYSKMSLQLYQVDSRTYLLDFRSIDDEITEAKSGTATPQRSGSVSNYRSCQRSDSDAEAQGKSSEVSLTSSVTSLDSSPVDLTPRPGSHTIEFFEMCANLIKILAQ
T1 sequence (Q9Y478 whole entry partner): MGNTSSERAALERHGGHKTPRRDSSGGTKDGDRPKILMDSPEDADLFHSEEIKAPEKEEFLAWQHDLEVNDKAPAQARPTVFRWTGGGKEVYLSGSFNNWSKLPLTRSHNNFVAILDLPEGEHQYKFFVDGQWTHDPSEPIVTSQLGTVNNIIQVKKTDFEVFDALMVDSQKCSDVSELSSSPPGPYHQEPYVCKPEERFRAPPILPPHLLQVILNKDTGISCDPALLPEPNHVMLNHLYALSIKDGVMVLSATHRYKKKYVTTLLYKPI
T1 sequence (P54619 whole entry partner): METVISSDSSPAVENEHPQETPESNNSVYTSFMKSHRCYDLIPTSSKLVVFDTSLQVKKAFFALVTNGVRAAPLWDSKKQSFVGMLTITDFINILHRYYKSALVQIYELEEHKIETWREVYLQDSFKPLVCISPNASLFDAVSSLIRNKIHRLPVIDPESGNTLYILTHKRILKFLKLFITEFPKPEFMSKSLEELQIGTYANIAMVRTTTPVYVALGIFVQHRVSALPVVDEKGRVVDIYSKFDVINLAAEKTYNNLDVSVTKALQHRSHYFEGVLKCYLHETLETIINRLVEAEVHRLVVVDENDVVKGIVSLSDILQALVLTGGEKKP
T6 sequence (Q9H422 whole entry): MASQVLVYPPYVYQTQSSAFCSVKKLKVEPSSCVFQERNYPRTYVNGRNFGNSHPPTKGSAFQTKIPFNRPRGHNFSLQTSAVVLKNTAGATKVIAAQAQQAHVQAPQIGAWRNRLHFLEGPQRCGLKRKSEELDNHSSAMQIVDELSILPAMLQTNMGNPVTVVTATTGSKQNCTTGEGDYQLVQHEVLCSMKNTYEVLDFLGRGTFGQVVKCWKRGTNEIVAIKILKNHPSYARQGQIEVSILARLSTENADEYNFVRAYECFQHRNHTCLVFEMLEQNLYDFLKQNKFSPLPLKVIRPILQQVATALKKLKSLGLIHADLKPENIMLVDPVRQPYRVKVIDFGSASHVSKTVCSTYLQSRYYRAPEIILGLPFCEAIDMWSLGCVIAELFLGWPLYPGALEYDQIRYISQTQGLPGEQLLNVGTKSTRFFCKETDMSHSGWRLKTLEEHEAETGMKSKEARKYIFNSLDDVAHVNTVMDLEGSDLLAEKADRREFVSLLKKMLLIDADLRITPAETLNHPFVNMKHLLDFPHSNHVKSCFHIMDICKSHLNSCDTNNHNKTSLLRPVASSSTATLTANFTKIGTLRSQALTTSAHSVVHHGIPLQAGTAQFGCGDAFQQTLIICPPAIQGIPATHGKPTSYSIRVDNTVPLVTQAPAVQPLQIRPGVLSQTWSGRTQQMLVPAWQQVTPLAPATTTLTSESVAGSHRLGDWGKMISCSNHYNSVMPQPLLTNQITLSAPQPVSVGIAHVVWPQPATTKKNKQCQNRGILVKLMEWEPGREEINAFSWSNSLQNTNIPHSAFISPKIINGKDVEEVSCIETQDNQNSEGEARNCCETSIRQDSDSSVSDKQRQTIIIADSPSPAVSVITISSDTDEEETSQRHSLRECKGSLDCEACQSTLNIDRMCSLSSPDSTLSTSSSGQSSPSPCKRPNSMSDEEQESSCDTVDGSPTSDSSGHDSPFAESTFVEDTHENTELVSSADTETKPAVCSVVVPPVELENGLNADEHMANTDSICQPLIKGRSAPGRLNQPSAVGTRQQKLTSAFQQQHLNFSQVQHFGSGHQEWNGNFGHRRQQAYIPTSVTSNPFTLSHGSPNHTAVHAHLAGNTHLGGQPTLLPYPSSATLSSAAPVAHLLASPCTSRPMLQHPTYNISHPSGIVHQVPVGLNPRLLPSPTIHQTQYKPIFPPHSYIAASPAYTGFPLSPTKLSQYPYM

Compound: COc1cc(OC)c(Cl)c(-c2ccc3c(NC(=O)c4ccc(N5CCNC(C)(C)C5)cc4)n[nH]c3n2)c1Cl [3D185]
- inhibition at 0.01 µM (AMPKα1(h); 10 nM): -8%
- inhibition at 0.1 µM (AMPKα1(h); 100 nM): -6%
- inhibition at 1 µM (AMPKα1(h); 1000 nM): -13%
- inhibition at 0.01 µM (BTK(h); 10 nM): 11%
- inhibition at 0.1 µM (BTK(h); 100 nM): 39%
- inhibition at 1 µM (BTK(h); 1000 nM): 90%
- inhibition at 0.01 µM (CDK6/cyclinD3(h); 10 nM): 9%
- inhibition at 0.1 µM (CDK6/cyclinD3(h); 100 nM): 15%
- inhibition at 1 µM (CDK6/cyclinD3(h); 1000 nM): 16%
- inhibition at 0.01 µM (CDKL3(h); 10 nM): -12%
- inhibition at 0.1 µM (CDKL3(h); 100 nM): -17%
- inhibition at 1 µM (CDKL3(h); 1000 nM): -9%
- inhibition at 0.01 µM (CHK1(h); 10 nM): 3%
- inhibition at 0.1 µM (CHK1(h); 100 nM): -6%
- inhibition at 1 µM (CHK1(h); 1000 nM): -3%
- inhibition at 0.01 µM (HIPK3(h); 10 nM): -2%
- inhibition at 0.1 µM (HIPK3(h); 100 nM): -12%
- inhibition at 1 µM (HIPK3(h); 1000 nM): -8%
- inhibition at 0.01 µM (NEK6(h); 10 nM): -7%
- inhibition at 0.1 µM (NEK6(h); 100 nM): 4%
- inhibition at 1 µM (NEK6(h); 1000 nM): 2%
- inhibition at 0.01 µM ([1]; 10 nM): 3%
- inhibition at 0.1 µM ([1]; 100 nM): 2%
- inhibition at 1 µM ([1]; 1000 nM): 0%
- inhibition at 0.01 µM (PKCδ(h); 10 nM): 5%
- inhibition at 0.1 µM (PKCδ(h); 100 nM): 4%
- inhibition at 1 µM (PKCδ(h); 1000 nM): -1%
- inhibition at 0.01 µM (Rse(h); 10 nM): 5%
- inhibition at 0.1 µM (Rse(h); 100 nM): -2%
- inhibition at 1 µM (Rse(h); 1000 nM): 16%
- inhibition at 0.01 µM (SGK(h); 10 nM): -4%
- inhibition at 0.1 µM (SGK(h); 100 nM): -13%
- inhibition at 1 µM (SGK(h); 1000 nM): -7%
- inhibition at 0.01 µM (mTOR(h); 10 nM): -2%
- inhibition at 0.1 µM (mTOR(h); 100 nM): -2%
- inhibition at 1 µM (mTOR(h); 1000 nM): 4%
